Results reported in the supplement of paper PMC10307832.

Key:
Assay in all cases: relative viability (nuclei count vs DMSO), 5 days (fraction); higher = more cells survive
CUDC-101 + AZD7762 = compound: C#Cc1cccc(Nc2ncnc3cc(OC)c(OCCCCCCC(=O)NO)cc23)c1 [CUDC-101] + NC(=O)Nc1cc(-c2cccc(F)c2)sc1C(=O)N[C@H]1CCCNC1 [AZD7762] (partner 0.2 µM)
Procedure, shortened: (§1)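 Relative viability was taken as the ratio of nuclei in treated wells to nuclei in vehicle wells. Lung cancer cell lines in 1536-well plates received compounds by pin tool one day after seeding, either one drug alone or a fixed anchor-drug dose plus five library-drug doses (not always all listed) in √10 steps. Nuclei were counted on 4× images after 5 days of treatment, and values are medians of duplicate plates.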

[1] = compound: C1=CC=C2C(=C1)N=C(S2)C(C#N)C3=NC(=NC=C3)NCCC4=CN=CC=C4 + COc1cccc2cc(-c3nc([C@H]4CC[C@H](C(=O)O)CC4)n4ncnc(N)c34)[nH]c12 [OSI-027] (partner 0.5 µM)
Procedure, shortened: as §1

NVP-TAE684 + Alpelisib = compound: COc1cc(N2CCC(N3CCN(C)CC3)CC2)ccc1Nc1ncc(Cl)c(Nc2ccccc2S(=O)(=O)C(C)C)n1 [NVP-TAE684] + Cc1nc(NC(=O)N2CCC[C@H]2C(N)=O)sc1-c1ccnc(C(C)(C)C(F)(F)F)c1 [Alpelisib] (partner 2 µM)
Procedure, shortened: as §1

Vandetanib + Dasatinib = compound: COc1cc2/c(=N/c3ccc(Br)cc3F)nc[nH]c2cc1OCC1CCN(C)CC1 [Vandetanib] + Cc1nc(Nc2ncc(C(=O)Nc3c(C)cccc3Cl)s2)cc(N2CCN(CCO)CC2)n1 [Dasatinib] (partner 0.075 µM)
Procedure, shortened: as §1

Row | Cell Line | relative viability (CUDC-101 + AZD7762; first compound 0.01 µM) | relative viability (CUDC-101 + AZD7762; first compound 0.03162 µM) | relative viability (CUDC-101 + AZD7762; first compound 0.1 µM) | relative viability (CUDC-101 + AZD7762; first compound 0.3162 µM) | relative viability (CUDC-101 + AZD7762; first compound 1 µM) | relative viability ([1]; first compound 0.005 µM) | relative viability ([1]; first compound 0.01581 µM) | relative viability ([1]; first compound 0.05 µM) | relative viability ([1]; first compound 0.1581 µM) | relative viability ([1]; first compound 0.5 µM) | relative viability (NVP-TAE684 + Alpelisib; first compound 0.2 µM) | relative viability (NVP-TAE684 + Alpelisib; first compound 0.6325 µM) | relative viability (NVP-TAE684 + Alpelisib; first compound 2 µM) | relative viability (Vandetanib + Dasatinib; first compound 0.02 µM) | relative viability (Vandetanib + Dasatinib; first compound 0.06325 µM) | relative viability (Vandetanib + Dasatinib; first compound 0.2 µM) | relative viability (Vandetanib + Dasatinib; first compound 0.6325 µM) | relative viability (Vandetanib + Dasatinib; first compound 2 µM)
1 | NCI-H1975 | 0.749 | 0.743 | 0.665 | 0.761 | 0.722 | 0.511 | 0.819 | 0.613 | 0.811 | 0.283 | 0.703 | 0.545 | 0.235 | 0.349 | 0.361 | 0.341 | 0.423 | 0.373
2 | NCI-H2087 | 1.32 | 1.46 | 1.28 | 1.24 | 0.815 | 0.557 | 0.629 | 0.495 | 0.548 | 0.483 | 1.07 | 1.04 | 1.01 | 0.809 | 0.661 | 0.684 | 0.835 | 0.984
3 | LCLC-97TM1 | 0.264 | 0.211 | 0.343 | 0.305 | 0.248 | 0.562 | 0.701 | 0.537 | 0.607 | 0.572 | 0.194 | 0.233 | 0.127 | 0.801 | 0.848 | 0.807 | 0.865 | 0.786
4 | EPLC-272H | 0.187 | 0.139 | 0.175 | 0.109 | 0.115 | 0.217 | 0.264 | 0.254 | 0.257 | 0.301 | 0.799 |  | 0.9 | 0.301 |  | 0.415 | 0.352 | 0.321
5 | CAL-12T | 0.668 | 0.567 | 0.617 | 0.536 | 0.601 | 0.811 | 0.536 | 0.525 | 0.534 | 0.427 | 1.24 | 1.38 | 0.535 | 0.426 | 0.407 | 0.387 | 0.29 | 0.32
6 | NCI-H1755 | 0.387 | 0.396 | 0.463 | 0.43 | 0.317 | 0.709 | 0.733 | 0.727 | 0.745 | 0.67 | 0.692 | 1 | 0.771 | 0.416 | 0.425 | 0.446 | 0.42 | 0.404
7 | H3255 | 1.01 | 0.721 | 0.546 | 0.556 | 0.259 | 0.732 | 0.596 | 0.608 | 0.581 | 0.702 | 0.716 | 0.608 | 0.491 | 0.364 | 0.358 | 0.325 | 0.252 | 0.264
8 | NCI-H441 | 1.36 | 1.08 | 1.34 | 1.37 | 1.07 |  | 0.669 | 0.556 | 0.719 | 0.487 | 0.835 | 0.965 | 0.503 | 0.552 | 0.54 | 0.617 | 0.598 | 0.629
9 | NCI-H1793 | 0.406 | 0.31 | 0.477 | 0.648 | 0.211 | 0.276 | 0.303 | 0.215 | 0.261 | 0.245 | 0.78 | 0.637 | 0.436 | 0.448 | 0.353 | 0.387 | 0.381 | 0.391
10 | LK-2 | 0.508 | 0.422 | 0.336 | 0.263 | 0.0851 | 0.2 | 0.187 | 0.201 | 0.189 | 0.195 | 0.846 | 1.07 | 0.574 | 0.261 | 0.24 | 0.295 | 0.239 | 0.221
11 | HCC-78 | 0.66 | 0.531 | 0.603 | 0.355 | 0.323 | 0.367 | 0.35 | 0.332 | 0.438 | 0.36 | 0.319 | 0.198 | 0.282 | 0.428 | 0.286 | 0.362 | 0.451 | 0.336
12 | NCI-H2126 | 1.01 | 0.98 | 0.939 | 0.945 | 0.943 | 0.739 | 0.676 | 0.732 | 0.705 | 0.677 | 0.756 | 0.811 | 0.65 | 0.564 | 0.564 | 0.626 | 0.559 | 0.467
13 | RERF-LC-KJ | 1.01 | 0.971 | 1.18 | 0.922 | 0.608 | 0.645 | 0.564 | 0.511 | 0.63 | 0.562 | 0.789 | 0.743 | 0.843 | 0.767 | 0.868 | 0.756 | 0.758 | 0.683
14 | NCI-H3122 | 0.998 | 0.951 | 1 | 1.04 | 1.06 | 0.671 | 0.923 | 0.895 | 1.34 | 0.819 | 0.28 | 0.197 | 0.189 | 0.683 | 0.673 | 0.122 | 0.76 | 0.797
15 | NCI-H322M | 0.558 | 0.428 | 0.496 | 0.345 | 0.353 | 0.515 | 0.463 | 0.529 | 0.585 | 0.685 | 0.638 | 0.771 | 0.818 | 0.23 | 0.25 | 0.24 | 0.223 | 0.252
16 | NCI-H647 | 0.555 | 0.376 | 0.567 | 0.403 | 0.176 | 0.638 | 0.585 | 0.491 | 0.756 | 0.527 | 1.32 | 1.1 | 0.377 | 0.151 | 0.207 | 0.175 | 0.178 | 0.198
17 | EMC-BAC-2 | 1.08 | 1.09 | 1.06 | 0.947 | 0.443 | 0.364 | 0.37 | 0.38 | 0.394 | 0.366 | 0.704 | 0.759 | 0.436 | 0.332 | 0.312 | 0.327 | 0.295 | 0.3
18 | PC-14 | 0.428 | 0.339 | 0.214 | 0.185 | 0.124 | 0.606 | 0.923 | 0.669 | 1.22 | 0.729 | 0.728 | 1.05 | 0.874 | 0.246 | 0.136 | 0.0576 | 0.0422 | 0.0429
19 | 201T | 0.617 | 0.646 | 0.613 | 0.614 | 0.39 | 0.935 | 0.696 | 0.7 | 0.833 | 0.779 | 0.976 | 1.05 | 0.839 | 0.573 | 0.527 | 0.578 | 0.589 | 0.575
20 | LXF-289 | 1.08 | 1.13 | 1.02 | 1.07 | 0.811 | 0.515 | 0.863 | 0.797 | 0.846 | 0.589 | 1.08 | 1.04 |  | 0.24 | 0.218 | 0.107 | 0.257 | 0.253
